From the NIST ThermoML archive (doi:10.1021/je500381c)

Assay: xn = mol fraction of the nth substance listed
Conditions: for mass density / viscosity: 100 kPa, Liquid; for mass density: Vibrating tube method; for surface tension liquid-gas: Drop volume

CCC12CC3CC(CC(C3)C1)C2 [1-ethyladamantane] + CCCCCCCO
Conditions | mass density [kg/m3] | surface tension liquid-gas [mN/m] | viscosity [mPa·s]
293.15 K, x2 = 0 | 937.11 | – | 6.371
293.15 K, x2 = 0.0999 | 927.59 | – | 5.91
293.15 K, x2 = 0.1999 | 917.88 | – | 5.707
293.15 K, x2 = 0.2988 | 907.92 | – | 5.62
293.15 K, x2 = 0.3991 | 897.36 | – | 5.584
293.15 K, x2 = 0.4998 | 886.28 | – | 5.647
293.15 K, x2 = 0.5995 | 874.78 | – | 5.843
293.15 K, x2 = 0.7 | 862.6 | – | 6.077
293.15 K, x2 = 0.8002 | 849.85 | – | 6.41
293.15 K, x2 = 0.9 | 836.45 | – | 6.719
298.15 K, x2 = 0 | 933.58 | 29.87 | 5.565
298.15 K, x2 = 0.0999 | 924.02 | 29.66 | 5.136
298.15 K, x2 = 0.1999 | 914.26 | 29.21 | 4.958
298.15 K, x2 = 0.2988 | 904.28 | 28.87 | 4.86
298.15 K, x2 = 0.3991 | 893.7 | 28.72 | 4.836
298.15 K, x2 = 0.4998 | 882.65 | 28.42 | 4.859
298.15 K, x2 = 0.5995 | 871.16 | 28.1 | 4.989
298.15 K, x2 = 0.7 | 859.01 | 27.75 | 5.156
298.15 K, x2 = 0.8002 | 846.29 | 27.23 | 5.422
298.15 K, x2 = 0.9 | 832.93 | 26.74 | 5.683
303.15 K, x2 = 0 | 929.99 | – | 4.903
303.15 K, x2 = 0.0999 | 920.37 | – | 4.506
303.15 K, x2 = 0.1999 | 910.61 | – | 4.337
303.15 K, x2 = 0.2988 | 900.6 | – | 4.238
303.15 K, x2 = 0.3991 | 890.03 | – | 4.215
303.15 K, x2 = 0.4998 | 878.99 | – | 4.215
303.15 K, x2 = 0.5995 | 867.51 | – | 4.306
303.15 K, x2 = 0.7 | 855.39 | – | 4.424
303.15 K, x2 = 0.8002 | 842.7 | – | 4.63
303.15 K, x2 = 0.9 | 829.37 | – | 4.841
308.15 K, x2 = 0 | 926.4 | – | 4.348
308.15 K, x2 = 0.0999 | 916.7 | – | 3.965
308.15 K, x2 = 0.1999 | 906.92 | – | 3.814
308.15 K, x2 = 0.2988 | 896.92 | – | 3.722
308.15 K, x2 = 0.3991 | 886.35 | – | 3.692
308.15 K, x2 = 0.4998 | 875.31 | – | 3.681
308.15 K, x2 = 0.5995 | 863.84 | – | 3.742
308.15 K, x2 = 0.7 | 851.75 | – | 3.824
308.15 K, x2 = 0.8002 | 839.08 | – | 3.985
308.15 K, x2 = 0.9 | 825.79 | – | 4.154
313.15 K, x2 = 0 | 922.81 | – | 3.878
313.15 K, x2 = 0.0999 | 913.02 | – | 3.516
313.15 K, x2 = 0.1999 | 903.22 | – | 3.376
313.15 K, x2 = 0.2988 | 893.21 | – | 3.286
313.15 K, x2 = 0.3991 | 882.64 | – | 3.251
313.15 K, x2 = 0.4998 | 871.61 | – | 3.235
313.15 K, x2 = 0.5995 | 860.15 | – | 3.275
313.15 K, x2 = 0.7 | 848.08 | – | 3.331
313.15 K, x2 = 0.8002 | 835.43 | – | 3.454
313.15 K, x2 = 0.9 | 822.17 | – | 3.589
318.15 K, x2 = 0 | 919.21 | – | 3.478
318.15 K, x2 = 0.0999 | 909.33 | – | 3.135
318.15 K, x2 = 0.1999 | 899.51 | – | 3.003
318.15 K, x2 = 0.2988 | 889.49 | – | 2.922
318.15 K, x2 = 0.3991 | 878.91 | – | 2.882
318.15 K, x2 = 0.4998 | 867.88 | – | 2.859
318.15 K, x2 = 0.5995 | 856.43 | – | 2.884
318.15 K, x2 = 0.7 | 844.37 | – | 2.919
318.15 K, x2 = 0.8002 | 831.75 | – | 3.012
318.15 K, x2 = 0.9 | 818.53 | – | 3.12
323.15 K, x2 = 0 | 915.62 | – | 3.134
323.15 K, x2 = 0.0999 | 905.62 | – | 2.811
323.15 K, x2 = 0.1999 | 895.76 | – | 2.687
323.15 K, x2 = 0.2988 | 885.74 | – | 2.608
323.15 K, x2 = 0.3991 | 875.17 | – | 2.569
323.15 K, x2 = 0.4998 | 864.13 | – | 2.54
323.15 K, x2 = 0.5995 | 852.69 | – | 2.555
323.15 K, x2 = 0.7 | 840.64 | – | 2.573
323.15 K, x2 = 0.8002 | 828.04 | – | 2.644
323.15 K, x2 = 0.9 | 814.85 | – | 2.728
328.15 K, x2 = 0 | 912.01 | – | 2.838
328.15 K, x2 = 0.0999 | 901.91 | – | 2.531
328.15 K, x2 = 0.1999 | 892.03 | – | 2.413
328.15 K, x2 = 0.2988 | 881.97 | – | 2.338
328.15 K, x2 = 0.3991 | 871.39 | – | 2.299
328.15 K, x2 = 0.4998 | 860.35 | – | 2.267
328.15 K, x2 = 0.5995 | 848.92 | – | 2.271
328.15 K, x2 = 0.7 | 836.88 | – | 2.28
328.15 K, x2 = 0.8002 | 824.29 | – | 2.333
328.15 K, x2 = 0.9 | 811.13 | – | 2.399
333.15 K, x2 = 0 | 908.41 | – | 2.581
333.15 K, x2 = 0.0999 | 898.19 | – | 2.291
333.15 K, x2 = 0.1999 | 888.26 | – | 2.178
333.15 K, x2 = 0.2988 | 878.19 | – | 2.106
333.15 K, x2 = 0.3991 | 867.59 | – | 2.066
333.15 K, x2 = 0.4998 | 856.55 | – | 2.033
333.15 K, x2 = 0.5995 | 845.11 | – | 2.03
333.15 K, x2 = 0.7 | 833.08 | – | 2.033
333.15 K, x2 = 0.8002 | 820.51 | – | 2.07
333.15 K, x2 = 0.9 | 807.38 | – | 2.121
